Results from US20130039956A1, “USE OF NITROCARBOXYLIC ACIDS FOR THE TREATMENT, DIAGNOSIS AND PROPHYLAXIS OF AGGRESSIVE HEALING PATTERNS” (priority 2010, published 2013).

Experiments:
[1] = test system: Tracheas of adult Wistar rats; test: Tissue damage due to barotrauma ex vivo (tracheal rings); type: cell-based; conditions: inhibitor 10 micromol, 6 hours before traumatization
Procedure: In order to determine the effects of nitrated fatty acids on mechanical trauma to tracheal cells, an ex vivo model was established. Tracheas of adult Wistar rats sacrificed with thiopental given intraabdominally were carefully resected (harvested). Whole (intact) tracheas were cultured in DMEM 10 (Sigma) supplemented with antibiotic/antimycotic drugs for 48 hours at 37° C. Tracheas were cut into five pieces of equal size. One piece was immediately analyzed, two were bathed in 0.9% saline, one was bathed in a solution containing native fatty acid in SDS (1%), and one was bathed in a solution containing nitro fatty acid, respectively, for 15 minutes each. The inner diameters of the tracheal rings were measured. A non-compliant balloon catheter for use in vascular interventions was chosen, so that the nominal balloon diameter was 15-20% larger than that of the trachea. One tracheal ring pretreated with 0.9% saline was left untreated; the other prepared tracheal rings were mounted on the balloon catheter, which was inflated to a pressure of 4 atm thereafter. Balloons were kept inflated for 4 hours, while being positioned in the culture medium. Thereafter, the tracheal rings were further cultivated in separate vials for 24 hours. In a separate set of investigations, sense/antisense ODNs for HO-1 (Invitrogen) directed against the translation initiation codon in the HO-1 cDNA was used to inhibit hemoxydase-1 synthesis. The cells were transfected using the Superfect transfection reagent (Qiagen) before traumatization. In another set of experiments, the HO inhibitor SnPP IX (Porphyrin Products, London, UK) was added to the culture medium 6 hours before traumatization at a dose of 10 micromol.
For analysis, the rings were cut into small strips using a no touch technique. Viability was tested using a MTT assay and apoptosis using a TUNEL assay. Anti-HO-1 antibodies (StressGen, Tebu, Le-Perray-en-Yvelines, France) were measured by Western blot and immunohistochemistry.

[2] = test system: human dermal fibroblasts; test: Extra cellular matrix production (collagen-1) in response to TGF-β2 in dermal fibroblasts; type: cell-based
Procedure: In order to determine whether PPRA gamma stimulation due to nitrated fatty acids plays a role in the inventive inhibition of an aggressive healing pattern to an irritating stimulus, human dermal fibroblasts were investigated. A dominant-negative PPAR gamma mutant (L466A) cell clone was generated by polymerase chain reaction-based site-directed mutagenesis. Presence of PPAR gamma or absence was investigated using a PPAR gamma antibody reaction which was determined using an enhanced chemiluminescence detection system. Furthermore, one cell series was incubated with a selective irreversible PPAR gamma ligand (GW9662, 1 μmol), which effectively blocks PPAR gamma receptors.
Sequential cultivation of human dermal fibroblasts was performed in EMEM containing 5 mM glucose supplemented with 10% FCS under standard cultivation conditions. Cells were allowed to grow to confluence in a 96-well plate. Wild-type fibroblasts and PPAR gamma deficient fibroblasts were investigated by a set-up of 2×10 sample sets comprising: (1) blank control; (2) stimulation control; (3) preincubation with the PPAR gamma antagonist GW9662 (Cayman Chemical); (4) preincubation with the PPAR agonist troglitazone (25 μmol). In 2×4 sample sets, native fatty acids were added to the medium to achieve a final concentration of 10 and 50 μmol, respectively; in another 2×4 sets the nitrated fatty acids were added to the medium in the same concentration, while 2×2 sets served as controls. In 10 of the sets, TGF-β2 was added to the culture medium at a concentration of 25 ng/ml. Cultivation was continued for 48 hours and then processed in order to analyze collagen-1 as measured by enhanced chemiluminescence detection of immuncomplexes.

[3] = test system: human umbellical endothelial cells (HUVEC); test: Adhesion, propagation and growth of endothelial cells on coated polystyrene films; type: cell-based; conditions: days 3, 7, 14, compared with native FA; further: key: 0: not superior to native FA (control); +: Superior to native FA; ++: superior to both; +++: outstanding effect
Procedure: Polystyrene scaffolds were prepared and pretreated in the same manner as performed in example 1 by using the same nitrocarboxylic acids as listed in table 1. The film samples were placed in a culture dish containing a gel matrix, in which human umbellical endothelial cells (HUVEC) had been allowed to grow to confluence. The culture medium consisted of 5% FCS, which was replaced every 5 days. Cultivation was performed according to standard conditions. Films were evaluated at days 3, 7, and 14 after careful extraction from the culture dishes, rinsing with saline solution, and staining with methylene blue. Using a reflected light microscope, the films were immediately examined to evaluate the following: Propagation of cells to the film center, cell confluidity, multilayer formation, and cell shape.

[4] = test system: Cardiomyocytes; test: TGF-β1-inducible formation of extracellular matrix in cardiomyocytes under shear stress; type: cell-based; conditions: 10-100 μmol, shear stress up to 100 dyn/cm^2; compared with native FA; further: key: 0: not superior to native FA (control); +: Superior to native FA; ++: superior to both; +++: outstanding effect
Procedure: Characterizing features of the fibrous remodelling in the heart are accentuated expression and deposition of extracellular matrix proteins (ECM). This has been attributed to increased mechanical forces via autocrine release of transforming growth factor-beta (TGF-beta). […] An established cell culture model was used to investigate the effect of shear stress on cardiomyocytes. Cardiomyocytes were cultured and transferred to a matrigel substrate. Plates with confluenced cells were placed into a shear force injury device (SFID). The SFID design is based on a cone-and-plate construction which is a well-defined rheological model in which a homogenously distributed laminar flow over the surface of the cells is generated by a rotating cone. The conical surface is positioned above a stationary flat plate and the fluid medium between these two surfaces is set in motion by rotating the cone to create a uniform level of fluid shear stress throughout the entire surface of the cells cultured on the coverslips.
A peak shear stress of 100 dyn/cm^2 could be applied without significant cell detachment enabling a maximum injury severity of 46%. Cells were exposed to FCS 1% without or with nitro-fatty acid, and the corresponding native fatty acid in a dosage range between 10 μmol and 100 μmol, 10 seconds before shear force application. Shear force peaks up to 100 dyn/cm^2 with a duration of 30 msec each with a repetition frequency of 60/minute were applied for 5, 10, 30 and 60 minutes. Thereafter the cell plates were washed and placed in FCS 1% for 24 hrs. The supernatant of the shear force investigation as well as that of the following culture phase was analysed. It could be shown that TGF-beta and ECM proteins (collagen I, fibronectin, laminin, elastin) increased after treatment in the control groups.

[5] = test system: Murine macrophage-like cells RAW 264.7 and murine L929 fibroblasts; test: Monocyte/fibroblast co-culture on coated surgical suture material; type: cell-based; conditions: dip-coated suture material, 24 and 48 hours; compared with native FA; further: key: 0: not superior to native FA (control); +: Superior to native FA; ++: superior to both; +++: outstanding effect
From the text: In order to determine immunoreactions to foreign material and its consequence on fibrogenesis, co-cultures of fibroblasts and monocytes were used. Commercially available suture materials (propylene, polyamide, and silk) were dip-coated with corresponding native and nitrated fatty acids. Untreated suture material served as control. Treated and untreated suture materials were out in small pieces and placed in a 96-well plate.
Murine macrophage-like cells RAW 264.7 and murine L929 fibroblasts were cultured to a population density of 5×10(5) each. Cell suspensions were merged achieving a cellularity of approximately 2.5×10(5) cell/ml of each cell population which were added to the wells. The suture material samples were fully covered by the suspension. Wells were continuously and gently shaken throughout the incubation period.
Supernatants were collected for assays after 24 and 48 hours and analyzed for profibrotic cytokines IL-13, IL-4, and IL-6, TGF-β1, collagen I.

[6] = test system: adult rats; test: Fibrogenesis after traumatic and thermal tissue damage in dermal wound healing in vivo; design: species or system rat; conditions: 100 micromol ethanolic solution on wound margins, 8 weeks, compared with native FA; further: key: 0: not superior to native FA (control); +: Superior to native FA; ++: superior to both; +++: outstanding effect
From the text: In order to determine the effects of nitrated fatty acids on fibrogenesis in response to traumatic and thermal tissue damage, an in vivo rat model was investigated. Paravertebral scalpel incision (two on each side) of approximately 1 cm in length and a depth of 1 mm were made in 12 anesthetized adult rats (150-200 g) of either sex after disinfection. Bleeding was stopped by manual compression. The entire length of the wound margins of one incision at each side were additionally cauterized using a 3-mm ball electrode connected to a DRE ASG-120 electrosurgical generator. Wound margins of one side were then covered with a sterile ethanolic 0.9% saline solution, or with a sterile ethanolic solution of the fatty acids (100 micromol), or with a sterile ethanolic solution of the nitrated fatty acids (100 micromol) using a sterile brush. A 1×10 mm cotton string that was bathed in the ethanolic solution containing 0.9% saline, native fatty acid or nitrated fatty acids was placed upon the incision site that had been closed by manual adaptation. The adaptation result and the cotton strings were fixed by an adhesive film. The animals were housed and fed according to institutional standards. The wound films were carefully removed after 2 weeks. Animals were euthanized after 8 weeks. The skin wounds were harvested, including the epidermis, dermis, and subcutaneous loose tissue with the surrounding normal tissue. The removed tissues were fixed in formalin and then embedded in paraffin. The cutting plane was vertical to the longitudinal axis of the former incisions. Slices (4-6 μm) were stained with H&E and Masson trichrome staining to evaluate the amount and density of collagen.

[7] = test system: Human peripheral blood mononuclear cells (PBMCs); test: Adhesion of serum proteins and monocyte activation induced by coated silicone; type: cell-based; conditions: dip-coated silicone, PBMCs 3 days; compared with native FA
Procedure: In order to determine the effect of coating implant materials with nitro fatty acids to reduce adsorption of adhesion molecules and monocyte activation, sterile silicone sheets were out in small pieces and coated with respective nirocarboxylic acid and the corresponding native fatty acids by dip coating. Uncoated silicone pieces served as controls. For each fatty acid two sets of silicone pieces were bathed in freshly drawn human serum for 1 hour at 37° C., and another two sets were bathed in saline solutions. One set of both coated and uncoated pieces was analyzed immediately for adhesion proteins and the other set was placed in 96-well plates after rinsing the silicone pieces. Human peripheral blood mononuclear cells (PBMCs), isolated from three healthy subjects, were added to each well. Wells were incubated for 3 days under standard conditions. Culture supernatants were assayed for IL-1beta, IL-6, IL-8, and chemoattractant protein 1 (MCP-1) levels at the start and end of experiments.
Before analyzing the silicone pieces for protein adsorption, they were bathed in saline for 5 minutes. Thereafter, one side was rinsed with saline as performed for both sides in the set used for culturing. There was marked adsorption of fibrinogen and […] C5b-9 on the uncoated silicone. […] No protein was found on the surface of the nitro fatty acid-coated sample that was rinsed, thus, indicating the weak adherence of serum proteins.

[8] = test system: fibroblasts; test: Mechanical alteration of fibroblasts (cyclic stretching of coated polypropylene meshes); type: cell-based; conditions: day 21 to end of follow-up
From the text: In order to simulate the effects of chronic shear forces on a healing wound, an in vitro model was established. A flat balloon was placed on the bottom of a Petri dish. A silicone sheet was placed above and sealed with the side of the Petri dish. Then a 3 mm agar layer was casted on top of the sheet. Commercially available polypropylene meshes for hernia repair (microporous mesh, a low-weight and macroporous mesh with absorbable polyglactin filaments, and a heavy-weight and microporous mesh) were placed on the agar plates and fixed at 4 points at the side of the Petri dish. This setting enabled stretching of the meshes by filling the balloons with air, which was performed at 10-second intervals using an automated pumping device. The model can be used to evaluate the effect of three-dimensional (3D) shear forces on cell growth during cell cultivation. Preincubated suspensions of fibroblasts (1.5×10(5) cells) in a culture medium (10% FCS) were added to the culture dishes and allowed to grow for 48 hours. Cyclic stretching was started at day 3. Histological analysis was performed from the central portions of the meshes at day 7, at day 21, and after 8 weeks. The scaffolds were detached from the culture plate and carefully rinsed. Then, they were cut into pieces, casted, and further processed for standard histology and immunohistology. Care was taken to achieve a cutting plane that was vertical to the surface plane of the meshes. Histological analysis evaluated the cellularity, the content of extra cellular matrix (ECM), and the magnitude of protein synthesis. Meshes were dip-coated with native and nitro fatty acids or left blank in the same manner as in example 1. The uncoated meshes served as controls.

C=CC1=C(C)C2=Cc3c(C=C)c(C)c4[n]3[Sn]([Cl])([Cl])[n]3c(c(C)c(CCC(=O)O)c3=CC3=NC(=C4)C(C)=C3CCC(=O)O)=CC1=N2 [HO-1 inhibitor, reference compound]
HO-1 production [1]: reduced the HO-1 production to the lower detection limit or complete absence

Cc1c(C)c2c(c(C)c1O)CCC(C)(COc1ccc(CC3SC(=O)NC3=O)cc1)O2 (stereo not shown) [PPAR agonist, troglitazone, reference compound]
reduction of collagen-1 concentrations as compared to the control ([2]; TGF-β2 stimulated, PPAR-positive cells, 25 μmol): 35-40%

O=C(Nc1ccccc1)c1cc([N+](=O)[O-])ccc1Cl [PPAR gamma antagonist, reference compound]
collagen-1 after TGF-β2 stimulation ([2]; PPAR gamma-positive and -negative cells): marked increase of collagen-1

CCCCCC=CCC=C(C/C=C\CCCCC(=O)O)[N+](=O)[O-] [compound 20, 9-nitro-cis-6,9,12-octadecatrienoic acid]
Relative differences: effect on adhesion, propagation and growth of endothelial cells [3]: 0 | Relative efficacy to suppress TGF-beta and ECM proteins in cardiomyocytes [4]: + | Relative effect on profibrotic cytokines and collagen I on suture material [5]: 0 | Relative effect on collagen-1 production in response to TGF-β2 ([2]; 10 and 50 μmol, TGF-β2 25 ng/ml, 48 hours, compared with native FA): + | Relative effect on fibrogenesis (scar formation) in dermal wound healing [6]: + | Relative effect on serum protein adhesion and monocyte activation [7]: +

nitrooleic acid
density of actinmyosin filaments in fibroblasts [8]: more actin-myosin fibers (intra-cellular green filaments) than fibroblasts within the coated meshes
